Data set [1] relates to AR42J tumor-bearing CB17-SCID mice. The settings on record: 24 h p.i.; cited from earlier work.
In data set [2] the target is T1, Human serum albumin (HSA) (Homo sapiens, UniProt P02768).
T1 construct: purchased Daicel, Tokyo, Japan H13H-2433
The experiment in a line: Human serum albumin binding via high performance affinity chromatography (HPAC). The data set is classed as in vitro ADME. The settings on record: Chiralpak HSA column. As to the method:
Human serum albumin (HSA) binding was determined via high performance affinity chromatography (HPAC), according to previously published protocols. Human serum albumin interaction was calculated according to the retention time (n = 1) of our compounds on a Chiralpak HSA column in dependence of nine reference compounds with known HSA interaction.
Human serum albumin binding was determined via high performance affinity chromatography. Therefore, a Chiralpak HSA column (50 × 3 mm, 5 µm, H13H-2433, Daicel, Tokyo, Japan) was used at a constant flow rate of 0.5 ml/min at room temperature. Mobile phase A consisted of a freshly prepared aqueous solution of NH4OAc (pH = 6.9, 50 mM) and mobile phase B of isopropanol. Calibration of the column was performed daily prior to experiments, by determining the retention times of nine reference substances displaying a HSA binding from 13 to 99%. HPLC gradient for all compounds tested was 100% A (0 to 3 min), followed by 80% A (3 to 40 min). All substances tested, were dissolved in a mixture of A/B (0.5 mg/mL, 1:1, v/v). OriginPro 2016G software (Northampton, United States) was used for non-linear regression and data evaluation.

Data set [3] is described as follows: Lipophilicity, n-octanol/PBS distribution coefficient logD7.4. Type of data set: physicochemical. The settings on record: 177Lu-labeled peptide; n-octanol/PBS (1/1), n ≥ 5. As to the method:
For determination of lipophilicity, the respective ^177Lu-Labeled peptide precursor (~ 1 MBq, 10 µL in 0.04 M HCl) was added to a solution of n-octanol/PBS (1/1, v/v, 1 mL) and vigourously mixed for 3 min at room temperature (n ≥ 5). Afterwards both phases were seperated using a Biofuge 15 centrifuge (Heraus Sepatech GmbH, Osterode, Germany) at 9,000 rpm for 5 min. 200 µL aliquots of both layers were collected separately, measured in a γ-counter (Perkin Elmer, Waltham, MA, USA) and the logD7.4 value was obtained.

By logD is commonly meant lipophilicity at a set pH, counting ionised and neutral species. High values mean a more lipophilic compound, low ones a more hydrophilic compound.

“And” between values parts separate entries of the source, which are not always exact repeats. Equal values may be shown once. Numbered stars: 1 amine (or outer) side, 2 acyl side, 3 side chain; on linkers, the order of the positions; unused ones are H or OH. Square brackets hold non-standard residues; d marks the D form. Peptide text beside a SMILES is read from it. * marks the point of attachment. Benzoyl(4-SiFtBu2) = CC(C)(C)[Si](F)(c1ccc(C(=O)*)cc1)C(C)(C)C; DOTA = O=C(O)CN1CCN(CC(=O)O)CCN(CC(=O)*)CCN(CC(=O)O)CC1; d(γGlu) = O=C(O)[C@@H](CCC(=O)[*:2])N[*:1]; 1Nal = N[C@@H](Cc1cccc2ccccc12)C(=O)O; PEG5 = NCCOCCOCCOCCOCCOCCC(=O)O; NMeNle = CCCC[C@H](NC)C(=O)O; PEG4 = NCCOCCOCCOCCOCCC(=O)O; dDap = NC[C@@H](N)C(=O)O

T1 sequence (P02768 25-609): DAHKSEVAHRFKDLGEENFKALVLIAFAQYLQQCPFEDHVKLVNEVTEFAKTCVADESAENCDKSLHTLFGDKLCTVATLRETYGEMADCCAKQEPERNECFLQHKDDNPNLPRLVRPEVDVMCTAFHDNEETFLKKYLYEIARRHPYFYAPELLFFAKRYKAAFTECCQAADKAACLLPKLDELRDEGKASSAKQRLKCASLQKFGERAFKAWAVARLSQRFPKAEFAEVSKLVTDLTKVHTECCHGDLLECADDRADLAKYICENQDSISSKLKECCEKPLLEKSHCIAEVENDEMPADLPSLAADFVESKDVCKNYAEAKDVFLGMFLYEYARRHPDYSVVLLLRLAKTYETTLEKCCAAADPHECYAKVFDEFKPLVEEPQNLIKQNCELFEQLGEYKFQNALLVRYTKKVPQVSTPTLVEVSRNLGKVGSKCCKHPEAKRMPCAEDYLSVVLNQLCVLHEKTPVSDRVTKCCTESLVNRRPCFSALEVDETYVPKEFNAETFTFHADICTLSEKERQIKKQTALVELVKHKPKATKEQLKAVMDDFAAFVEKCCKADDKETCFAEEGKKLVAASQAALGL

Regarding `CCCC[C@H](NC(=O)[C@H](Cc1c[nH]c2ccccc12)NC(=O)CNC(=O)[C@H](Cc1ccc(O)cc1)NC(=O)[C@H](C)NC(=O)CC[C@@H](NC(=O)CC[C@@H](NC(=O)CC[C@@H](NC(=O)CC[C@@H](NC(=O)CC[C@@H](NC(=O)CC[C@@H](NC(=O)CC[C@@H](NC(=O)CC[C@@H](NC(=O)[C@@H](CNC(=O)c1ccc([Si](F)(C(C)(C)C)C(C)(C)C)cc1)NC(=O)CN1CCN(CC(=O)O)CCN(CC(=O)O)CCN(CC(=O)O)CC1)C(=O)O)C(=O)O)C(=O)O)C(=O)O)C(=O)O)C(=O)O)C(=O)O)C(=O)O)C(=O)N[C@@H](CC(=O)O)C(=O)N[C@@H](Cc1ccccc1)C(N)=O` [[^177Lu]Lu-DOTA-rhCCK-18, DOTA-D-Dap(p-SiFA)-(D-γ-Glu)8-Ala-Tyr-Gly-Trp-Nle-Asp-Phe-NH2, metal not drawn], in data set [1], the “activity levels in the bone” value is given as 0.20 ± 0.03 %ID/g, the “activity levels in the liver” value is given as 0.22 ± 0.01 %ID/g, the “activity levels in the spleen” value was 0.34 ± 0.09 %ID/g and the “activity levels in the stomach” value is reported as 4.3 ± 1.1 %ID/g. In data set [1], the “activity levels in the tumor” value was 25.4 ± 4.7 %ID/g, the “activity uptake in the kidneys” value is given as 134 ± 18 %ID/g and the tumor-to-kidney ratio is reported as 0.19 ± 0.01. Besides, the HSA binding in data set [2] (n = 1, listed as [^natLu]Lu-DOTA-rhCCK-18) is 87.1% and 87%.

Compound `CCCC[C@@H](C(=O)N[C@@H](CC(=O)O)C(=O)N[C@@H](Cc1cccc2ccccc12)C(N)=O)N(C)C(=O)[C@H](Cc1c[nH]c2ccccc12)NC(=O)CCOCCOCCOCCOCCNC(=O)CC[C@@H](NC(=O)CCOCCOCCOCCOCCOCCNC(=O)[C@@H](CNC(=O)c1ccc([Si](F)(C(C)(C)C)C(C)(C)C)cc1)NC(=O)CN1CCN(CC(=O)O)CCN(CC(=O)O)CCN(CC(=O)O)CC1)C(=O)O` [[^nat/177Lu]Lu-DOTA-rhCCK-67, DOTA-D-Dap(p-SiFA)-(PEG)4-B, metal not drawn] ({DOTA}-[dDap](Benzoyl(4-SiFtBu2))[PEG5][d(γGlu)][PEG4]W[NMeNle]D[1Nal]-NH2) came in with a logD in data set [3] of -1.05 ± 0.09. Moreover, in data set [2] (n = 1), the HSA binding was 92.9%.

Take `CCCC[C@@H](C(=O)N[C@@H](CC(=O)O)C(=O)N[C@@H](Cc1cccc2ccccc12)C(N)=O)N(C)C(=O)[C@H](Cc1c[nH]c2ccccc12)NC(=O)CCOCCOCCOCCOCCNC(=O)CC[C@@H](NC(=O)CCOCCOCCOCCOCCOCCNC(=O)CC[C@@H](NC(=O)[C@@H](CNC(=O)c1ccc([Si](F)(C(C)(C)C)C(C)(C)C)cc1)NC(=O)CN1CCN(CC(=O)O)CCN(CC(=O)O)CCN(CC(=O)O)CC1)C(=O)O)C(=O)O` [[^nat/177Lu]Lu-DOTA-rhCCK-68, DOTA-D-Dap(p-SiFA)-D-γ-Glu-(PEG)4-B, metal not drawn]: in data set [3], the logD was -1.65 ± 0.09. In addition, the HSA binding in data set [2] (n = 1) is given as 91.2%.

Take `CCCC[C@@H](C(=O)N[C@@H](CC(=O)O)C(=O)N[C@@H](Cc1cccc2ccccc12)C(N)=O)N(C)C(=O)[C@H](Cc1c[nH]c2ccccc12)NC(=O)CCOCCOCCOCCOCCNC(=O)CC[C@@H](NC(=O)CCOCCOCCOCCOCCOCCOCCOCCOCCNC(=O)CC[C@@H](NC(=O)[C@@H](CNC(=O)C[N+](C)(C)Cc1ccc([Si](F)(C(C)(C)C)C(C)(C)C)cc1)NC(=O)CN1CCN(CC(=O)O)CCN(CC(=O)O)CCN(CC(=O)O)CC1)C(=O)O)C(=O)O` [[^nat/177Lu]Lu-DOTA-rhCCK-71, DOTA-D-Dap(SiFAlin)-D-γ-Glu-(PEG)7-B, metal not drawn]: the logD in data set [3] is -1.63 ± 0.06. In data set [2] (n = 1), this compound returned an HSA binding of 89.1%.

As to “DOTA-(D-Glu)6-Ala-Tyr-Gly-Trp-Nle-Asp-Phe-NH2 [[^177Lu]Lu-DOTA-PP-F11N]”, in data set [1], the “activity levels in the tumor” value is reported as 1.9 ± 0.8 %ID/g and the kidney retention is recorded as 3.1 ± 0.6 %ID/g.

Take “DOTA-D-Glu-Ala-Tyr-Gly-Trp-(N-Me)Nle-Asp-1-Nal-NH2 [[^177Lu]Lu-DOTA-MGS5]”: in data set [1], the “activity levels in the tumor” value was 11.0 ± 1.2 %ID/g, the kidney retention was 1.3 ± 0.4 %ID/g, the tumor-to-kidney ratio is given as 9.4 ± 3.3 and the tumor-to-stomach ratio was 4.4 ± 0.7.

The record behind these values is article PMC10907560, “Significant reduction of activity retention in the kidneys via optimized linker sequences in radiohybrid-based minigastrin analogs” (EJNMMI Research, 2024).
